Assay results taken from patent US11760773B2, “Small molecule drug conjugates of gemcitabine monophosphate” (MaveriX Oncology, Inc., priority 2018, dated 2023).
Like-named read-outs stand apart in the source and are kept apart here.

Legend:
[1] = Comparative PK of Int 1-4 versus gemcitabine in rat plasma (study i); type: in vivo, Sprague-Dawley rats; conditions: Sprague-Dawley rat
Text: PK measurements: compare PK parameters C0, CL, Vdss, Cmax, tmax, t1/2, AUC(0-t), AUC(0-inf), MRT(0-t), MRT(0-inf) for Int 1-4 and gemcitabine.

[2] = Comparative dog plasma PK of Int 1-4 versus gemcitabine (study k); type: in vivo; conditions: male beagle dog; for AUC(0-inf): read-out: AUC0-inf; for MRT inf: read-out: MRT0-inf; for MRT last: read-out: MRT0-last; for Vd: read-out: Vdss
Procedure: Objectives: to compare the plasma pharmacokinetics and stability of Int-4 in plasma following single intravenous infusion administration of Int 1-4 at 5 mg/kg and 10 mg/kg versus gemcitabine at 5 mg/kg in the male Beagle dog

[3] = Comparative plasma PK of Int 1-4 versus gemcitabine in mouse (study a); type: in vivo; conditions: CD-1 mice
[4] = Int 1-4 plasma PK in the male cynomolgus monkey (study f); type: in vivo; conditions: for C0: read-out: C0; for MRT inf: read-out: MRT0-inf; for MRT last: read-out: MRT0-last; for Vd: read-out: Vdss
Procedure: Objectives: to compare the plasma pharmacokinetics and stability of Int 1-4 in plasma following single intravenous infusion administration of Int 1-4 at 5 mg/kg and 10 mg/kg in the male cynomolgus monkey
PK measurements: compare PK parameters C0, CL, Vdss, Cmax, tmax, t, AUC(0-t), AUC(0-inf), MRT(0-t), MRT(0-inf) for Int 1-4

[5] = Comparative plasma PK of Compound 1 versus Int 1-4 in male CD-1 mice (study b); type: in vivo; conditions: male, CD-1, mouse, iv; for Cmax: read-out: Cmax; for Tmax: read-out: Tmax
Procedure: Objectives: to compare the plasma pharmacokinetics and stability of Compound 1 with its non-phosphorylated SMDC analog (Int 1-4) and in plasma following a single intravenous infusion administration of Compound 1 at 11.6 mg/kg and 23.2 mg/kg with Int 1-4 (formulation F1 & F2) at 10.0 mg/kg in male CD-1 mice
PK measurements: compare PK parameters C0, CL, Vdss, Cmax, tmax, t1/2, AUC(0-t), AUC(0-inf), MRT(0-t), MRT(0-inf) for Compound 1 and Int 1-4

[6] = Int 1-4 and gemcitabine comparative PK in male cynomolgus monkey (study g); type: in vivo; conditions: for AUC(0-t) / C0 / clearance / half-life / AUC(0-inf) / MRT inf / MRT last / Vd: plasma, male cynomolgus monkey; for AUC(0-inf): read-out: AUC0-inf; for MRT inf: read-out: MRT0-inf; for MRT last: read-out: MRT0-last; for Vd: read-out: Vdss
Procedure: Objectives: to compare the plasma pharmacokinetics and stability of Int 1-4 versus gemcitabine in plasma following single intravenous infusion administration of Int 1-4 at 5 mg/kg and 10 mg/kg with equimolar gemcitabine at 2.65 mg/kg and 5.29 mg/kg in male cynomolgous monkeys
PK measurements: compare PK parameters C0, CL, Vdss, Cmax, tmax, t1/2, AUC(0-t), AUC(0-inf), MRT(0-t), MRT(0-inf) for Int 1-4 with gemcitabine

[7] = plasma, after iv Int 1-4 10.0 mg/kg
[8] = after iv Int 1-4 5 mg/kg (study k)
[9] = after iv Int 1-4 10 mg/kg (study k)
[10] = mouse, plasma, after iv Int 1-4 9.4 mg/kg
[11] = after iv Int 1-4 5 mg/kg (study f)
[12] = after iv Int 1-4 10 mg/kg (study f)
[13] = 10 mg/kg, after iv Int 1-4 10.0 mg/kg, Formulation 1
[14] = 10 mg/kg, after iv Int 1-4 10.0 mg/kg, Formulation 2
[15] = 11.6 mg/kg, after iv Compound 1 11.6 mg/kg
[16] = 23.2 mg/kg, after iv Compound 1 23.2 mg/kg
[17] = after iv Int 1-4 5 mg/kg (study g)
[18] = after iv Int 1-4 10 mg/kg (study g)

stability in the rat (based on Cmax and AUC of free gemcitabine in plasma) ([1]; iv Int 1-4): unstable | half-life ([1]; Sprague-Dawley, rat, plasma, iv, 10 mg/kg, plasma, after iv Int 1-4 10.0 mg/kg): 19.1 min | AUC0-inf/AUC0-last [1, 7]: 101% | AUC(0-inf) [1, 7]: 2010 ng·h/mL | AUC(0-t) [1, 7]: 1990 ng·h/mL | C0 [1, 7]: 29400 ng/mL | clearance [1, 7]: 82.3 mL/min/kg | MRT inf ([1]; plasma, after iv Int 1-4 10.0 mg/kg, read-out: MRT0-inf): 11.1 min | MRT last ([1]; plasma, after iv Int 1-4 10.0 mg/kg, read-out: MRT0-last): 10.3 min | Vd ([1]; plasma, after iv Int 1-4 10.0 mg/kg, read-out: Vdss): 0.905 L/kg | AUC(0-t) [2, 8]: 2700 ng·h/mL | C0 [2, 8]: 40000 ng/mL | clearance [2, 8]: 30.8 mL/min/kg | half-life [2, 8]: 15 min | AUC(0-inf) [2, 8]: 2730 ng·h/mL | Cmax ([2]; after iv Int 1-4 5 mg/kg (study k), read-out: Cmax): 30500 ng/mL | MRT inf [2, 8]: 7.2 min | MRT last [2, 8]: 6.6 min | Vd [2, 8]: 0.23 L/kg | AUC(0-t) [2, 9]: 7930 ng·h/mL | C0 [2, 9]: 90900 ng/mL | clearance [2, 9]: 43.3 mL/min/kg | half-life [2, 9]: 31.2 min | AUC(0-inf) [2, 9]: 7940 ng·h/mL | MRT inf [2, 9]: 13.8 min | MRT last [2, 9]: 13.2 min | Vd [2, 9]: 0.58 L/kg | plasma clearance and tissue uptake ([3]; after iv Int 1-4): quickly clears the plasma | AUC(0-t) [3, 10]: 4980 ng·h/mL | C0 [3, 10]: 78000 ng/mL | clearance [3, 10]: 27.1 mL/min/kg | half-life [3, 10]: 63.6 min | AUC(0-inf) ([3]; mouse, plasma, after iv Int 1-4 9.4 mg/kg, read-out: AUC0-inf): 5000 ng·h/mL | MRT inf ([3]; mouse, plasma, after iv Int 1-4 9.4 mg/kg, read-out: MRT0-inf): 20.8 min | MRT last ([3]; mouse, plasma, after iv Int 1-4 9.4 mg/kg, read-out: MRT0-last): 19.7 min | Vd ([3]; mouse, plasma, after iv Int 1-4 9.4 mg/kg, read-out: Vdss): 0.566 L/kg | AUC0-inf/AUC0-last ([3]; plasma, after iv Int 1-4 9.4 mg/kg): 100% | AUC(0-inf) [4, 11]: 5470 ng·h/mL | AUC(0-t) [4, 11]: 5460 ng·h/mL | clearance [4, 11]: 15.4 mL/min/kg | half-life [4, 11]: 43.8 min | C0 [4, 11]: 81000 ng/mL | MRT inf [4, 11]: 19.8 min | MRT last [4, 11]: 18.6 min | Vd [4, 11]: 0.301 L/kg | AUC(0-inf) [4, 12]: 17400 ng·h/mL | AUC(0-t) [4, 12]: 17400 ng·h/mL | clearance [4, 12]: 9.65 mL/min/kg | half-life [4, 12]: 55.8 min | C0 [4, 12]: 166000 ng/mL | MRT inf [4, 12]: 26.4 min | MRT last [4, 12]: 25.8 min | Vd [4, 12]: 0.253 L/kg | AUC(0-t) [5, 13]: 3620 ng·h/mL | C0 [5, 13]: 33800 ng/mL | clearance [5, 13]: 48.3 mL/min/kg | half-life [5, 13]: 70.8 min | AUC(0-inf) ([5]; 10 mg/kg, after iv Int 1-4 10.0 mg/kg, Formulation 1, read-out: AUC0-inf): 3630 ng·h/mL | MRT inf ([5]; 10 mg/kg, after iv Int 1-4 10.0 mg/kg, Formulation 1, read-out: MRT0-inf): 45.4 min | MRT last ([5]; 10 mg/kg, after iv Int 1-4 10.0 mg/kg, Formulation 1, read-out: MRT0-last): 43.4 min | Vd ([5]; 10 mg/kg, after iv Int 1-4 10.0 mg/kg, Formulation 1, read-out: Vdss): 2.01 L/kg | AUC(0-t) [5, 14]: 4210 ng·h/mL | C0 [5, 14]: 43000 ng/mL | clearance [5, 14]: 38.9 mL/min/kg | half-life [5, 14]: 109 min | AUC(0-inf) ([5]; 10 mg/kg, after iv Int 1-4 10.0 mg/kg, Formulation 2, read-out: AUC0-inf): 4290 ng·h/mL | MRT inf ([5]; 10 mg/kg, after iv Int 1-4 10.0 mg/kg, Formulation 2, read-out: MRT0-inf): 59 min | MRT last ([5]; 10 mg/kg, after iv Int 1-4 10.0 mg/kg, Formulation 2, read-out: MRT0-last): 47.8 min | Vd ([5]; 10 mg/kg, after iv Int 1-4 10.0 mg/kg, Formulation 2, read-out: Vdss): 2.3 L/kg | AUC(0-t) [5, 15]: 2570 ng·h/mL | half-life [5, 15]: 58.4 min | AUC(0-inf) ([5]; 11.6 mg/kg, after iv Compound 1 11.6 mg/kg, read-out: AUC0-inf): 2610 ng·h/mL | Cmax [5, 15]: 20000 ng/mL | MRT inf ([5]; 11.6 mg/kg, after iv Compound 1 11.6 mg/kg, read-out: MRT0-inf): 40.4 min | MRT last ([5]; 11.6 mg/kg, after iv Compound 1 11.6 mg/kg, read-out: MRT0-last): 33.2 min | Tmax [5, 15]: 1.5 min | AUC(0-t) [5, 16]: 6370 ng·h/mL | half-life [5, 16]: 55.8 min | AUC(0-inf) ([5]; 23.2 mg/kg, after iv Compound 1 23.2 mg/kg, read-out: AUC0-inf): 6380 ng·h/mL | Cmax [5, 16]: 29900 ng/mL | MRT inf ([5]; 23.2 mg/kg, after iv Compound 1 23.2 mg/kg, read-out: MRT0-inf): 47.6 min | MRT last ([5]; 23.2 mg/kg, after iv Compound 1 23.2 mg/kg, read-out: MRT0-last): 46.7 min | Tmax [5, 16]: 1.5 min | fold longer half-life than gemcitabine ([6]; male cynomolgus monkey plasma): ~50 fold | AUC(0-t) [6, 17]: 5950 ng·h/mL | C0 [6, 17]: 99700 ng/mL | clearance [6, 17]: 14.6 mL/min/kg | half-life [6, 17]: 45 min | AUC(0-inf) [6, 17]: 5960 ng·h/mL | MRT inf [6, 17]: 19.8 min | MRT last [6, 17]: 19.2 min | Vd [6, 17]: 0.287 L/kg | AUC(0-t) [6, 18]: 11900 ng·h/mL | C0 [6, 18]: 146000 ng/mL | clearance [6, 18]: 15 mL/min/kg | half-life [6, 18]: 59.4 min | AUC(0-inf) [6, 18]: 11900 ng·h/mL | MRT inf [6, 18]: 23.4 min | MRT last [6, 18]: 22.8 min | Vd [6, 18]: 0.349 L/kg
Compound: COc1cc(OC)c2oc(COC(=O)Nc3ccn([C@@H]4O[C@H](CO)[C@@H](O)C4(F)F)c(=O)n3)cc2c1 [Int 1-4, (5,7-di(methoxy)benzofuran-2-yl)methyl (1-((2R,4R,5R)-3,3-difluoro-4-hydroxy-5-(hydroxymethyl)tetrahydrofuran-2-yl)-2-oxo-1,2-dihydropyrimidin-4-yl)carbamate]
